Source: ChEMBL document CHEMBL4622896, “Enzymatic biosynthesis and biological evaluation of novel 17-AAG glucoside as potential anti-cancer agents” (Bioorg Med Chem Lett, 2020)
≈ marks a conversion by molar mass, not a printed value. Calls of active or inactive are those of the source. No cut-off for these calls is given here.

Legend:
Heat shock protein HSP90 [1] = biological target: T1, Heat shock protein HSP90 (Homo sapiens, UniProt P07900+P08238); experiment: Inhibition of HSP90 ATPase activity (unknown origin) malachite-green phosphate assay; type: protein assay
CNE2Z [2] = experiment: Antiproliferative activity against human CNE2Z cells assessed as cell growth inhibition by MTT assay; type: functional, cell-based
MDA-MB-231 = experiment: Antiproliferative activity against human MDA-MB-231 cells assessed as cell growth inhibition by MTT assay; type: functional, cell-based
[3] = Toxicity in nude mouse xenografted with human CNE2Z cells assessed as effect on liver at 1 mg/kg, ip administered for 19 days by hematoxylin and eosin staining based assay; type: organism-based; conditions: in vivo, 456 h
Heat shock protein HSP90 [4] = biological target: T1, Heat shock protein HSP90; experiment: Inhibition of HSP90 in human CNE2Z cells assessed as downregulation of Her-2 expression at 10 to 40 uM by Western blot analysis; type: cell-based
SMMC-7721 = experiment: Antiproliferative activity against human SMMC7721 cells assessed as cell growth inhibition by MTT assay; type: functional, cell-based
[5] = Toxicity in nude mouse xenografted with human CNE2Z cells assessed as effect on kidney at 1 mg/kg, ip administered for 19 days by hematoxylin and eosin staining based assay; type: organism-based; conditions: in vivo, 456 h
[6] = Toxicity in nude mouse xenografted with human CNE2Z cells assessed as effect on body weight at 1 mg/kg, ip administered for 19 days; type: organism-based; conditions: in vivo, 456 h
[7] = Solubility of the compound in water relative to 17-AAG; type: physicochemical; conditions: buffer
Heat shock protein HSP90 [8] = biological target: T1, Heat shock protein HSP90; experiment: Inhibition of HSP90 in human CNE2Z cells assessed as downregulation of Akt expression at 10 to 40 uM by Western blot analysis; type: cell-based
Heat shock protein HSP90 [9] = biological target: T1, Heat shock protein HSP90; experiment: Inhibition of HSP90 in human CNE2Z cells assessed as downregulation of HIF-1alpha expression at 10 to 40 uM by Western blot analysis; type: cell-based
[10] = Toxicity in nude mouse xenografted with human CNE2Z cells assessed as effect on lung at 1 mg/kg, ip administered for 19 days by hematoxylin and eosin staining based assay; type: organism-based; conditions: in vivo, 456 h
Heat shock protein HSP90 [11] = biological target: T1, Heat shock protein HSP90; experiment: Inhibition of HSP90 in human CNE2Z cells assessed as downregulation of c-Raf expression at 10 to 40 uM by Western blot analysis; type: cell-based
[12] = Solubility of the compound in water; type: physicochemical
CNE2Z [13] = experiment: Antitumor activity against human CNE2Z cells xenografted in nude mouse assessed as reduction in tumor volume at 1 mg/kg, ip administered for 19 days relative to control; type: functional; conditions: 456 h
SW480 = experiment: Antiproliferative activity against human SW480 cells assessed as cell growth inhibition by MTT assay; type: functional, cell-based
HepG2 = experiment: Antiproliferative activity against human HepG2 cells assessed as cell growth inhibition by MTT assay; type: functional, cell-based
Heat shock protein HSP90 [14] = biological target: T1, Heat shock protein HSP90; experiment: Inhibition of HSP90 in human CNE2Z cells assessed as downregulation of Bcl2 expression at 10 to 40 uM by Western blot analysis; type: cell-based
[15] = Toxicity in nude mouse xenografted with human CNE2Z cells assessed as effect on body weight at 5 mg/kg, ip administered for 19 days; type: organism-based; conditions: in vivo, 456 h

IC50 (Heat shock protein HSP90 [1]) [µM] | IC50 (MDA-MB-231) [µM] | inhibition (Heat shock protein HSP90 [4]) | IC50 (SMMC-7721) [µM] | Ratio [7] | inhibition (Heat shock protein HSP90 [8]) | inhibition (Heat shock protein HSP90 [9]) | inhibition (Heat shock protein HSP90 [11]) | solubility [12] [µM] | IC50 (SW480) [µM] | IC50 (HepG2) [µM] | inhibition (Heat shock protein HSP90 [14]) | SMILES | IC50 (CNE2Z [2]) [µM] | Activity [3] | Activity [5] | Activity [6] | Activity [10] | inhibition in vivo at 1 mg/kg (CNE2Z [13]) [%] | Activity [15]
> 100 | 28.5 | Active | 5.26 | 10.5 | Active | Active | Active | 661 (≈ 494 µg/mL) | 6.13 | 6.28 | Active | C=CCNC1=C2C[C@@H](C)C[C@H](OC)[C@H](O[C@@H]3O[C@H](CO)[C@@H](O)[C@H](O)[C@H]3O)[C@@H](C)/C=C(\C)[C@H](OC(N)=O)[C@@H](OC)/C=C\C=C(/C)C(=O)NC(=CC1=O)C2=O (stereo in doubt) | 9.2 | Non-Toxic | Non-Toxic | Non-Toxic | Non-Toxic | 75.5 | –
– | 1.79 | – | 0.19 | – | – | – | – | 63 (≈ 36.9 µg/mL) | 0.28 | 0.32 | – | C=CCNC1=C2C[C@@H](C)C[C@H](OC)[C@H](O)[C@@H](C)/C=C(\C)[C@H](OC(N)=O)[C@@H](OC)/C=C\C=C(/C)C(=O)NC(=CC1=O)C2=O [TANESPIMYCIN] | 8.41 | – | – | – | – | – | Non-Toxic
– | 0.62 | – | 0.11 | – | – | – | – | – | 0.51 | 1.74 | – | COC1=C2C[C@@H](C)C[C@H](OC)[C@H](O)[C@@H](C)/C=C(\C)[C@H](OC(N)=O)[C@@H](OC)/C=C\C=C(/C)C(=O)NC(=CC1=O)C2=O [GELDANAMYCIN] | 0.31 | – | – | – | – | – | –
